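Results reflect a 48-hour exposure of cells in 96-well plates to compound at five concentrations. Here, GI50 denotes the concentration required for 50% inhibition of growth. Definition used: TGI = concentration required for complete inhibition of growth.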
Assays:
Assay in all cases: NCI-60 cell line screen, 48 h
UO-31 renal = test system: UO-31 renal
MDA-MB-435 = test system: MDA-MB-435
A549 NSCLC = test system: A549 NSCLC
ACHN renal = test system: ACHN renal
SK-OV-3 ovarian = test system: SK-OV-3 ovarian
UACC-62 melanoma = test system: UACC-62 melanoma
OVCAR-4 ovarian = test system: OVCAR-4 ovarian
RXF 393 renal = test system: RXF 393 renal
COLO 205 colon = test system: COLO 205 colon
SK-MEL-28 melanoma = test system: SK-MEL-28 melanoma

Nc1c(C(=O)O)c2ccc([N+](=O)[O-])cc2c(=O)n1-c1nc2ccccc2s1
TGI (UO-31 renal): > 100 µM
TGI (MDA-MB-435): > 100 µM
TGI (A549 NSCLC): > 100 µM
TGI (ACHN renal): > 100 µM
TGI (SK-OV-3 ovarian): > 100 µM
TGI (UACC-62 melanoma): > 100 µM
TGI (OVCAR-4 ovarian): > 100 µM
TGI (RXF 393 renal): > 100 µM
TGI (COLO 205 colon): > 100 µM
TGI (SK-MEL-28 melanoma): > 100 µM

Cc1cc2nc(N3C(=O)/C(=C/Cc4ccco4)N=C3c3ccccc3)sc2cc1C
TGI (UO-31 renal): > 100 µM
TGI (MDA-MB-435): 50.5 µM
TGI (A549 NSCLC): > 100 µM
TGI (ACHN renal): 96.3 µM
TGI (SK-OV-3 ovarian): > 100 µM
TGI (UACC-62 melanoma): > 100 µM
TGI (OVCAR-4 ovarian): > 100 µM
TGI (RXF 393 renal): 59.1 µM
TGI (COLO 205 colon): > 100 µM
TGI (SK-MEL-28 melanoma): > 100 µM

COc1cccc2c(=O)oc(-c3ccccc3C)nc12
TGI (UO-31 renal): > 100 µM
TGI (MDA-MB-435): > 100 µM
TGI (A549 NSCLC): > 100 µM
TGI (ACHN renal): > 100 µM
TGI (SK-OV-3 ovarian): > 100 µM
TGI (UACC-62 melanoma): > 100 µM
TGI (OVCAR-4 ovarian): 70.6 µM
TGI (RXF 393 renal): > 100 µM
TGI (COLO 205 colon): > 100 µM
TGI (SK-MEL-28 melanoma): > 100 µM

Cc1nc(C(=Nc2ccc(Br)cc2)Nn2cnnc2)no1
TGI (UO-31 renal): > 100 µM
TGI (MDA-MB-435): > 100 µM
TGI (A549 NSCLC): > 100 µM
TGI (ACHN renal): > 100 µM
TGI (SK-OV-3 ovarian): > 100 µM
TGI (UACC-62 melanoma): > 100 µM
TGI (OVCAR-4 ovarian): > 100 µM
TGI (RXF 393 renal): > 100 µM
TGI (COLO 205 colon): > 100 µM
TGI (SK-MEL-28 melanoma): > 100 µM

O=c1c2ccc(Cl)cc2oc2c(CSc3ccccc3)cccc12
TGI (UO-31 renal): > 38.4 µM
TGI (MDA-MB-435): > 68.3 µM
TGI (A549 NSCLC): > 100 µM
TGI (ACHN renal): > 65.1 µM
TGI (SK-OV-3 ovarian): > 100 µM
TGI (UACC-62 melanoma): > 83.3 µM
TGI (OVCAR-4 ovarian): > 100 µM
TGI (RXF 393 renal): > 100 µM
TGI (COLO 205 colon): > 100 µM
TGI (SK-MEL-28 melanoma): > 100 µM

O=c1c2[nH]cnc2n(-c2ccccc2)c(=S)n1-c1ccccc1
TGI (UO-31 renal): > 100 µM
TGI (MDA-MB-435): > 100 µM
TGI (A549 NSCLC): > 100 µM
TGI (ACHN renal): > 100 µM
TGI (SK-OV-3 ovarian): > 100 µM
TGI (UACC-62 melanoma): > 100 µM
TGI (OVCAR-4 ovarian): > 100 µM
TGI (RXF 393 renal): > 100 µM
TGI (COLO 205 colon): > 100 µM
TGI (SK-MEL-28 melanoma): > 100 µM

Cn1c(CO)ccc1-c1ccc(-c2ccc(CO)[se]2)[se]1
TGI (UO-31 renal): > 100 µM
TGI (MDA-MB-435): 45.6 µM
TGI (A549 NSCLC): > 100 µM
TGI (ACHN renal): > 75.3 µM
TGI (SK-OV-3 ovarian): > 100 µM
TGI (UACC-62 melanoma): 31.5 µM
TGI (OVCAR-4 ovarian): 3.67 µM
TGI (RXF 393 renal): > 100 µM
TGI (COLO 205 colon): 9.23 µM
TGI (SK-MEL-28 melanoma): > 100 µM

CCc1c(O)nc(Nc2nc3ccccc3[nH]2)[nH]c1=O
TGI (UO-31 renal): > 100 µM
TGI (MDA-MB-435): > 100 µM
TGI (A549 NSCLC): > 100 µM
TGI (ACHN renal): > 100 µM
TGI (SK-OV-3 ovarian): > 100 µM
TGI (UACC-62 melanoma): > 100 µM
TGI (OVCAR-4 ovarian): > 100 µM
TGI (RXF 393 renal): > 100 µM
TGI (COLO 205 colon): > 100 µM
TGI (SK-MEL-28 melanoma): > 100 µM

C/C(=N\NC(=S)NC(C)(C)C)c1nc2ncccc2[nH]1
TGI (UO-31 renal): 5.82 µM
TGI (MDA-MB-435): > 78.4 µM
TGI (A549 NSCLC): 43.4 µM
TGI (ACHN renal): > 100 µM
TGI (SK-OV-3 ovarian): 12.6 µM
TGI (UACC-62 melanoma): 46.7 µM
TGI (OVCAR-4 ovarian): > 100 µM
TGI (RXF 393 renal): > 100 µM
TGI (COLO 205 colon): > 31.6 µM
TGI (SK-MEL-28 melanoma): > 100 µM

CC(C)CNP(=O)(NCC(C)C)Oc1ccc(CC(NC(=O)OCc2ccccc2)C(=O)OCc2ccccc2)cc1 (stereo not given)
TGI (UO-31 renal): 39 µM
TGI (MDA-MB-435): 22.8 µM
TGI (A549 NSCLC): > 100 µM
TGI (ACHN renal): 30.6 µM
TGI (SK-OV-3 ovarian): 29.2 µM
TGI (UACC-62 melanoma): 34.1 µM
TGI (OVCAR-4 ovarian): 36.5 µM
TGI (RXF 393 renal): 36.2 µM
TGI (COLO 205 colon): 35.4 µM
TGI (SK-MEL-28 melanoma): 30.5 µM

C[n+]1c2ccccc2n2c3ccccc3c(NCCCn3ccnc3)c(C#N)c21
TGI (UO-31 renal): 42.6 µM
TGI (MDA-MB-435): 9.4 µM
TGI (A549 NSCLC): 32.2 µM
TGI (ACHN renal): > 27.7 µM
TGI (SK-OV-3 ovarian): 38.8 µM
TGI (UACC-62 melanoma): 17.6 µM
TGI (OVCAR-4 ovarian): 7.42 µM
TGI (RXF 393 renal): 3.48 µM
TGI (COLO 205 colon): 4.4 µM
TGI (SK-MEL-28 melanoma): 13.3 µM

N#Cc1cc(F)cc(Oc2ccc(S(=O)(=O)C(F)F)c3c2CC(F)(F)[C@H]3O)c1
GI50 (UO-31 renal): 15.1 µM
TGI (UO-31 renal): 69.9 µM
GI50 (MDA-MB-435): 37.7 µM
TGI (MDA-MB-435): > 100 µM
GI50 (A549 NSCLC): 27.9 µM
TGI (A549 NSCLC): > 100 µM
GI50 (ACHN renal): 30.4 µM
TGI (ACHN renal): > 100 µM
GI50 (SK-OV-3 ovarian): 31.4 µM
TGI (SK-OV-3 ovarian): > 100 µM
GI50 (UACC-62 melanoma): 21.7 µM
TGI (UACC-62 melanoma): > 100 µM
GI50 (OVCAR-4 ovarian): 19 µM
TGI (OVCAR-4 ovarian): 91.7 µM
GI50 (RXF 393 renal): 21.5 µM
TGI (RXF 393 renal): > 100 µM
GI50 (COLO 205 colon): 25.6 µM
TGI (COLO 205 colon): 63.1 µM
GI50 (SK-MEL-28 melanoma): 36.1 µM
TGI (SK-MEL-28 melanoma): > 100 µM

[N-]=[N+]=CC(=O)C1CCN(c2ccccc2)C1=O (stereo not given)
TGI (UO-31 renal): > 10 µM
TGI (MDA-MB-435): > 10 µM
TGI (A549 NSCLC): > 10 µM
TGI (ACHN renal): > 10 µM
TGI (SK-OV-3 ovarian): > 10 µM
TGI (UACC-62 melanoma): > 10 µM
TGI (OVCAR-4 ovarian): > 10 µM
TGI (RXF 393 renal): > 10 µM
TGI (COLO 205 colon): > 10 µM
TGI (SK-MEL-28 melanoma): > 10 µM

Cc1cc(NC(=O)NC(=O)c2ccccc2NC(=O)CN(C)C)ccc1Oc1ncc(Br)cn1
TGI (UO-31 renal): > 100 µM
TGI (MDA-MB-435): 3.09 µM
TGI (A549 NSCLC): > 100 µM
TGI (ACHN renal): > 100 µM
TGI (SK-OV-3 ovarian): > 91.5 µM
TGI (UACC-62 melanoma): > 82.9 µM
TGI (OVCAR-4 ovarian): > 100 µM
TGI (RXF 393 renal): 22.8 µM
TGI (COLO 205 colon): 39.7 µM
TGI (SK-MEL-28 melanoma): > 56.2 µM

O=C(O)[C@H]1NC[C@H]2C(Br)=NO[C@@H]12
TGI (UO-31 renal): > 100 µM
TGI (MDA-MB-435): > 100 µM
TGI (A549 NSCLC): > 100 µM
TGI (ACHN renal): > 100 µM
TGI (SK-OV-3 ovarian): > 100 µM
TGI (UACC-62 melanoma): > 100 µM
TGI (OVCAR-4 ovarian): > 100 µM
TGI (RXF 393 renal): > 100 µM
TGI (COLO 205 colon): > 100 µM
TGI (SK-MEL-28 melanoma): > 100 µM

CC1(C)CCC[C@@]2(C)C1CC[C@@]1(CO)O[C@H](C3=CC(=O)OC3O)C[C@H]12 (stereo not given in full)
TGI (UO-31 renal): 29.2 µM
TGI (MDA-MB-435): 24.6 µM
TGI (A549 NSCLC): > 86.1 µM
TGI (ACHN renal): > 53.5 µM
TGI (SK-OV-3 ovarian): 72.6 µM
TGI (UACC-62 melanoma): 15.3 µM
TGI (OVCAR-4 ovarian): 35.2 µM
TGI (RXF 393 renal): 23.7 µM
TGI (COLO 205 colon): 23.2 µM
TGI (SK-MEL-28 melanoma): 25.6 µM

CC(=O)CCC1(C(=O)OCC(C)C)CCCC1=O (stereo not given)
TGI (UO-31 renal): > 100 µM
TGI (MDA-MB-435): > 100 µM
TGI (A549 NSCLC): > 100 µM
TGI (ACHN renal): > 100 µM
TGI (SK-OV-3 ovarian): > 100 µM
TGI (UACC-62 melanoma): > 100 µM
TGI (OVCAR-4 ovarian): > 100 µM
TGI (RXF 393 renal): > 100 µM
TGI (COLO 205 colon): > 100 µM
TGI (SK-MEL-28 melanoma): > 100 µM
